# Measured values: PubChem BioAssay AID248 (DTP/NCI, 2004)
# “And” between values parts separate entries of the source, which are not always exact repeats. Equal values may be shown once. Toxic doses and inconclusive results are not listed.
# System: L1210 leukemia ip in BDF1 mice, survival T/C
# Assay: NCI In Vivo Anticancer Drug Screen. Data for tumor model L1210 Leukemia (intraperitoneal) in B6D2F1 (BDF1) mice
# Settings: endpoint: mean survival time, higher = longer survival
# How it was run: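 Tumor was transplanted into mice, which were then dosed with test compound or vehicle alone. Survival was recorded for each group, and the treated figure was expressed relative to the control figure.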
smiles,measurement,setting,value
C[n+]1ccc(Nc2ccc(NC(=O)c3ccc(Nc4cc[n+](C)c5ccc(N)cc45)cc3N)cc2)cc1,T/C,"dose: 0.25 mg/kg/injection, schedule: Q01DX005 (iv), vehicle: water",104 % of control
same,T/C,"dose: 0.5 mg/kg/injection, schedule: Q01DX005 (iv), vehicle: water",97 % of control and 107 % of control
same,T/C,"dose: 0.5 mg/kg/injection, schedule: Q01DX009 (ip), vehicle: water",113 % of control
same,T/C,"dose: 0.5 mg/kg/injection, schedule: Q03HX008 (ip), vehicle: water",115 % of control
same,T/C,"dose: 0.5 mg/kg/injection, schedule: Q03HX016 (ip), vehicle: water",121 % of control
same,T/C,"dose: 0.5 mg/kg/injection, schedule: Q03HX024 (sc), vehicle: water",104 % of control
same,T/C,"dose: 0.5 mg/kg/injection, schedule: Q04DX003 (iv), vehicle: water",104 % of control
same,T/C,"dose: 0.78 mg/kg/injection, schedule: Q01DX009 (ip), vehicle: saline",100 % of control
same,T/C,"dose: 1.0 mg/kg/injection, schedule: Q01DX005 (iv), vehicle: water",104 % of control and 105 % of control
same,T/C,"dose: 1.0 mg/kg/injection, schedule: Q01DX009 (ip), vehicle: water",118 % of control
same,T/C,"dose: 1.0 mg/kg/injection, schedule: Q01DX009 (oral), vehicle: water",109 % of control
same,T/C,"dose: 1.0 mg/kg/injection, schedule: Q01DX009 (sc), vehicle: saline with Tween-80",101 % of control
same,T/C,"dose: 1.0 mg/kg/injection, schedule: Q01DX009 (sc), vehicle: water",106 % of control
same,T/C,"dose: 1.0 mg/kg/injection, schedule: Q03HX016 (ip), vehicle: water",159 % of control
same,T/C,"dose: 1.0 mg/kg/injection, schedule: Q03HX024 (ip), vehicle: water",165 % of control
same,T/C,"dose: 1.0 mg/kg/injection, schedule: Q03HX024 (oral), vehicle: water",94 % of control and 103 % of control
same,T/C,"dose: 1.0 mg/kg/injection, schedule: Q03HX024 (sc), vehicle: water",114 % of control
same,T/C,"dose: 1.0 mg/kg/injection, schedule: Q04DX003 (iv), vehicle: water",102 % of control
same,T/C,"dose: 1.56 mg/kg/injection, schedule: Q01DX009 (ip), vehicle: saline",114 % of control
same,T/C,"dose: 2.0 mg/kg/injection, schedule: Q01DX001 (ip), vehicle: water",106 % of control
same,T/C,"dose: 2.0 mg/kg/injection, schedule: Q01DX002 (ip), vehicle: water",110 % of control
same,T/C,"dose: 2.0 mg/kg/injection, schedule: Q01DX005 (iv), vehicle: water",115 % of control and 116 % of control
same,T/C,"dose: 2.0 mg/kg/injection, schedule: Q01DX009 (ip), vehicle: water",151 % of control and 157 % of control and 205 % of control
same,T/C,"dose: 2.0 mg/kg/injection, schedule: Q01DX009 (oral), vehicle: water",107 % of control
same,T/C,"dose: 2.0 mg/kg/injection, schedule: Q03HX008 (ip), vehicle: water",155 % of control and 170 % of control
same,T/C,"dose: 2.0 mg/kg/injection, schedule: Q03HX016 (ip), vehicle: water",158 % of control and 216 % of control
same,T/C,"dose: 2.0 mg/kg/injection, schedule: Q03HX024 (ip), vehicle: water",225 % of control and 236 % of control
same,T/C,"dose: 2.0 mg/kg/injection, schedule: Q03HX024 (oral), vehicle: water",102 % of control and 103 % of control
same,T/C,"dose: 2.0 mg/kg/injection, schedule: Q03HX024 (sc), vehicle: water",180 % of control
same,T/C,"dose: 2.0 mg/kg/injection, schedule: Q04DX003 (ip), vehicle: water",105 % of control
same,T/C,"dose: 2.0 mg/kg/injection, schedule: Q04DX003 (iv), vehicle: water",104 % of control
same,T/C,"dose: 4.0 mg/kg/injection, schedule: Q01DX001 (ip), vehicle: water",116 % of control
same,T/C,"dose: 4.0 mg/kg/injection, schedule: Q01DX002 (ip), vehicle: water",117 % of control
same,T/C,"dose: 4.0 mg/kg/injection, schedule: Q01DX009 (ip), vehicle: water",243 % of control and 248 % of control and 456 % of control
same,T/C,"dose: 4.0 mg/kg/injection, schedule: Q01DX009 (oral), vehicle: water",106 % of control
same,T/C,"dose: 4.0 mg/kg/injection, schedule: Q01DX009 (sc), vehicle: water",214 % of control
same,T/C,"dose: 4.0 mg/kg/injection, schedule: Q03HX008 (ip), vehicle: water",165 % of control and 252 % of control
same,T/C,"dose: 4.0 mg/kg/injection, schedule: Q03HX016 (ip), vehicle: water",178 % of control and 326 % of control
same,T/C,"dose: 4.0 mg/kg/injection, schedule: Q03HX024 (ip), vehicle: water",233 % of control and 329 % of control
same,T/C,"dose: 4.0 mg/kg/injection, schedule: Q03HX024 (oral), vehicle: water",100 % of control and 110 % of control
same,T/C,"dose: 4.0 mg/kg/injection, schedule: Q03HX024 (sc), vehicle: water",203 % of control
same,T/C,"dose: 4.0 mg/kg/injection, schedule: Q04DX003 (ip), vehicle: water",120 % of control
same,T/C,"dose: 4.0 mg/kg/injection, schedule: Q04DX003 (iv), vehicle: water",102 % of control
same,T/C,"dose: 6.25 mg/kg/injection, schedule: Q01DX009 (ip), vehicle: saline",161 % of control
same,T/C,"dose: 8.0 mg/kg/injection, schedule: Q01DX001 (ip), vehicle: water",116 % of control
same,T/C,"dose: 8.0 mg/kg/injection, schedule: Q01DX005 (ip), vehicle: water",256 % of control
same,T/C,"dose: 8.0 mg/kg/injection, schedule: Q01DX009 (ip), vehicle: water",326 % of control and 417 % of control and 436 % of control
same,T/C,"dose: 8.0 mg/kg/injection, schedule: Q01DX009 (oral), vehicle: water",98 % of control and 103 % of control and 111 % of control
same,T/C,"dose: 8.0 mg/kg/injection, schedule: Q01DX009 (sc), vehicle: water",195 % of control
same,T/C,"dose: 8.0 mg/kg/injection, schedule: Q03HX008 (ip), vehicle: water",178 % of control
same,T/C,"dose: 8.0 mg/kg/injection, schedule: Q03HX024 (ip), vehicle: water",153 % of control
same,T/C,"dose: 8.0 mg/kg/injection, schedule: Q03HX024 (oral), vehicle: water",100 % of control
same,T/C,"dose: 8.0 mg/kg/injection, schedule: Q03HX024 (sc), vehicle: water",163 % of control
same,T/C,"dose: 8.0 mg/kg/injection, schedule: Q04DX003 (ip), vehicle: water",150 % of control
same,T/C,"dose: 10.0 mg/kg/injection, schedule: Q01DX009 (oral), vehicle: saline with Tween-80",100 % of control
same,T/C,"dose: 12.5 mg/kg/injection, schedule: Q01DX009 (ip), vehicle: saline",231 % of control
same,T/C,"dose: 16.0 mg/kg/injection, schedule: Q01DX001 (ip), vehicle: water",161 % of control
same,T/C,"dose: 16.0 mg/kg/injection, schedule: Q01DX002 (ip), vehicle: water",155 % of control
same,T/C,"dose: 16.0 mg/kg/injection, schedule: Q01DX005 (ip), vehicle: water",225 % of control
same,T/C,"dose: 16.0 mg/kg/injection, schedule: Q01DX009 (ip), vehicle: water",382 % of control
same,T/C,"dose: 16.0 mg/kg/injection, schedule: Q01DX009 (oral), vehicle: water",98 % of control and 103 % of control
same,T/C,"dose: 16.0 mg/kg/injection, schedule: Q01DX009 (sc), vehicle: water",230 % of control
same,T/C,"dose: 16.0 mg/kg/injection, schedule: Q04DX003 (ip), vehicle: water",167 % of control and 168 % of control and 190 % of control
same,T/C,"dose: 16.0 mg/kg/injection, schedule: Q08DX002 (ip), vehicle: water",171 % of control
same,T/C,"dose: 20.0 mg/kg/injection, schedule: Q01DX009 (oral), vehicle: saline with Tween-80",104 % of control
same,T/C,"dose: 25.0 mg/kg/injection, schedule: Q01DX001 (ip), vehicle: saline",108 % of control
same,T/C,"dose: 25.0 mg/kg/injection, schedule: Q01DX009 (ip), vehicle: saline",364 % of control
same,T/C,"dose: 32.0 mg/kg/injection, schedule: Q01DX009 (oral), vehicle: water",100 % of control
same,T/C,"dose: 50.0 mg/kg/injection, schedule: Q01DX001 (ip), vehicle: saline",161 % of control
same,T/C,"dose: 50.0 mg/kg/injection, schedule: Q01DX009 (ip), vehicle: saline",331 % of control
same,T/C,"dose: 64.0 mg/kg/injection, schedule: Q01DX009 (oral), vehicle: water",106 % of control and 109 % of control
same,T/C,"dose: 80.0 mg/kg/injection, schedule: Q01DX009 (oral), vehicle: saline with Tween-80",106 % of control
same,T/C,"dose: 160.0 mg/kg/injection, schedule: Q01DX009 (oral), vehicle: saline with Tween-80",101 % of control
same,T/C,"dose: 200.0 mg/kg/injection, schedule: Q01DX001 (ip), vehicle: saline",257 % of control
